In patent US20240408116A1, “COMPOSITIONS FOR ENHANCING SEXUAL PLEASURE WITH REDUCED PHAR[…] OF PDE5 INHIBITOR” (priority 2023, published 2024):

Tested on: male participants
Assay: Male participants rated strength of erections and orgasms on a scale of 1 to 10 after ingesting PDE5 inhibitor and cannabis/THC
Type: in vivo, human

Measured: PDE5 inhibiting effect of THC taken alone

Experimental: Male participants rated the strength of their erections and orgasms, and female participants rated the strength of their threshold desire, arousal and orgasms, on a scale of 1 to 10.
This first time, the subject took the full prescription dose of sildenafil (100 mg) in pill form together with an infused cannabis edible containing 20 mg of THC.
The subject in Examples 1 and 2 further reduced the dosage of sildenafil to 40 mg, 30 mg, and 20 mg in stages, together with cannabis dosages that delivered 20 mg, 15 mg, or 10 mg of THC.
A test subject consumed ingestible dosage forms of cannabis and sildenafil. This first time, the subject took 50% of the full prescription dose of sildenafil (50 mg) in pill form together with an infused cannabis edible containing 20 mg of THC.
The subject in Example 4 further reduced the dosage of sildenafil to 40 mg and used the same cannabis dosage that delivered 20 mg of THC.
The subject in Examples 4 and 5 further reduced the dosage of sildenafil to 30 mg, 20 mg, and 10 mg in stages, together with cannabis dosages that delivered 20 mg, 15 mg, or 10 mg of THC.
A test subject consumed ingestible dosage forms of cannabis and sildenafil. This first time, the subject took 60% of the full prescription dose of sildenafil (60 mg) in pill form together with an infused cannabis edible containing 25 mg of THC.
The test subject in Example 7 further reduced the dosage of sildenafil to 40 mg and used a cannabis dosage that delivered 20 mg of THC.
The subject in Examples 7 and 8 further reduced the dosage of sildenafil to 30 mg, 20 mg, and 10 mg in stages, together with cannabis dosages that delivered 20 mg, 15 mg, or 10 mg of THC.

CCCCCc1cc(O)c2c(c1)OC(C)(C)[C@@H]1CCC(C)=C[C@@H]21 [THC, tetrahydrocannabinol]
no noticeable PDE5 inhibiting effect: Example 1: person | Example 4: person | Example 7: person | Example 10: person
